Measured values from patent publication US11926609B1, “6′-(3-chlorophenyl)-2′-ethoxy-3,4′-bipyridine-3′-carbonitrile as antimicrobial compounds” (KING FAISAL UNIVERSITY, priority 2023, dated 2024).

What was measured:
Type in all cases: cell-based
Escherichia coli = assay: Agar plate disc-diffusion, antibacterial inhibition zone; details: Gram negative, nutrient agar, 37° C., 48 h, DMSO zone subtracted
Procedure: (§1) The agar plate disc-diffusion method was applied. Sterilized filter papers (6 mm in diameter) were wetted with 10 μL of a solution of 6′-(3-chlorophenyl)-2′-ethoxy-3,4′-bipyridine-3′-carbonitrile (4) to be tested, containing […], and the discs were allowed to air dry. The discs were then placed onto the surface of agar plates (nutrient agar for bacteria and Sabouraud's dextrose agar for fungi) seeded with the test organism. Each plate contained 15 mL of the agar medium, previously seeded with 0.2 mL of the broth culture of each organism pregrown for 18 hours. The plates were incubated at 37° C. for 48 h, and 72 h for fungi. The inhibition zones were measured in mm. Discs impregnated with DMSO were used as a control, and its inhibition zone was subtracted from the tested compound actual inhibition zone.
(§2) The results of the antimicrobial testing can be observed in Tables 1 and 2, below, using ciprofloxacin as a reference.

Bacillus Cereus = assay: as above; details: Gram positive, nutrient agar, 37° C., 48 h, DMSO zone subtracted
Procedure: as §1, §2

Pseudomonas aeruginosa = assay: as above; details: Gram negative, nutrient agar, 37° C., 48 h, DMSO zone subtracted
Procedure: as §1, §2

Staphylococcus aureus = assay: as above; details: Gram positive, nutrient agar, 37° C., 48 h, DMSO zone subtracted
Procedure: as §1, §2

[1] = system: Chrysosporium keratinophilum; assay: Agar plate disc-diffusion, antifungal inhibition zone; details: Sabouraud's dextrose agar, 72 h, DMSO zone subtracted
Procedure: as §1, §2

Aspergillus flavus = assay: as above; details: Sabouraud's dextrose agar, 72 h, DMSO zone subtracted
Procedure: as §1, §2

[2] = A = concentration of comp. = 10,000 μL
[3] = B = concentration of comp. = 30.000 μL
[4] = C = concentration of comp. = 50,000 μL

CCOc1nc(-c2cccc(Cl)c2)cc(-c2cccnc2)c1C#N [compound 4, 6′-(3-chlorophenyl)-2′-ethoxy-3,4′-bipyridine-3′-carbonitrile]
inhibition zone, Escherichia coli, A (Escherichia coli; [2]): 26 mm | inhibition zone, Escherichia coli, B (Escherichia coli; [3]): 36 mm | inhibition zone, Escherichia coli, C (Escherichia coli; [4]): 48 mm | inhibition zone, Bacillus Cereus, A (Bacillus Cereus; [2]): 26 mm | inhibition zone, Bacillus Cereus, B (Bacillus Cereus; [3]): 28 mm | inhibition zone, Bacillus Cereus, C (Bacillus Cereus; [4]): 40 mm | inhibition zone, Pseudomonas aeruginosa, A (Pseudomonas aeruginosa; [2]): 22 mm | inhibition zone, Pseudomonas aeruginosa, B (Pseudomonas aeruginosa; [3]): 29 mm | inhibition zone, Pseudomonas aeruginosa, C (Pseudomonas aeruginosa; [4]): 38 mm | inhibition zone, Staphylococcus aureus, A (Staphylococcus aureus; [2]): 19 mm | inhibition zone, Staphylococcus aureus, B (Staphylococcus aureus; [3]): 26 mm | inhibition zone, Staphylococcus aureus, C (Staphylococcus aureus; [4]): 33 mm | inhibition zone, Chrysosporium keratinophilum, A [1, 2]: 24 mm | inhibition zone, Chrysosporium keratinophilum, B [1, 3]: 26 mm | inhibition zone, Chrysosporium keratinophilum, C [1, 4]: 47 mm | inhibition zone, Aspergillus flavus, A (Aspergillus flavus; [2]): 21 mm | inhibition zone, Aspergillus flavus, B (Aspergillus flavus; [3]): 25 mm | inhibition zone, Aspergillus flavus, C (Aspergillus flavus; [4]): 36 mm
